Test results taken from patent US20190254285A1, “SODIUM PHOSPHITE COMBINATIONS” (priority 2016, published 2019).

Experiments:
black sigatoka [1] = assay: Black sigatoka on banana plants, single leaf test, leaf 1 preventive, VOLLEY 88 OL; format: in vivo; settings: for Area infected (%) / Efficacy: VOLLEY 88 OL 5.525 L/ha, phosphites 2 mol/l at 3 liter/ha; for Efficacy: vs untreated control
Protocol: (§1) A single leaf test was established in a research station located in the community of “Anita Grande,” county of Jimenez, province of Limon, Costa Rica (latitude 10°15′14.15″N, longitude 83°44′20.29″W).
(§2) Every treatment was established in individual plants. Treatments were applied to leaf number 1 to determine their effect as preventive. Leaf position is counted from top to bottom, whereby leaf number 1 is closest to the unfolded leaf. Treatments were distributed systematically to facilitate their location in the field.
(§3) Product applications were done in an area of 10×10 cm, with a special equipment designed to simulate aerial applications. Application was done at 35 pound-force per square inch. Since weather conditions were highly conducive for disease development, and inoculum density was very high, no artificial inoculation was done. All treatments were applied to the same position on the leaf to minimize experimental error. All treatments were applied at the equivalent volume of 25 L ha^−1, as it is done commercially. A total of 3 sprays were applied, application A at Day 0, application B at 7 days after application A (DAA), and application C at day 13 DAA. VOLLEY® 88 OL was sprayed at 5.525 L/ha and the different phosphites were applied at the same PO3 concentration of 2 mol/l and were sprayed at 3 liter/ha.
Mixture of products was done with an electric stirrer (DEWALT® General Purpose, model DW9107), equipped with a standard propel.
(§4) For the evaluation of the efficacy, the diseased area that was affected in the 10×10 cm leaf area was recorded. Evaluations were done 23, 30 and 36 DAA. Efficacy was calculated by comparing the treatments against the untreated control.

black sigatoka [2] = assay: Black sigatoka on banana plants, single leaf test, leaf 1 preventive, DITHANE 60 SC; format: in vivo; settings: for Area infected (%) / Efficacy: 23 DAA, leaf 1 preventive, DITHANE 60 SC 5 liter/ha; for Area infected (%): phosphites 2 mol/l at 3 liter/ha; for Efficacy: vs untreated control
Protocol: as §1, §2, §3, §4
(§5) Similar to Example 8, with the following differences: DITHANE® 60 SC (Dow AgroSciences) at a rate of 5 liter/ha was applied instead of […] and only one measurement was performed at 23 days after application A (DAA).

black sigatoka [3] = assay: Black sigatoka on banana plants, single leaf test, leaf 3 curative, DITHANE 60 SC; format: in vivo; settings: for Area infected (%) / Efficacy: 8 DAA, leaf 3 curative, DITHANE 60 SC 5 liter/ha; for Area infected (%): phosphites 2 mol/l at 3 liter/ha; for Efficacy: vs untreated control
Protocol: as §1, §2, §3, §4, §5
Similar to Example 9, with the following differences: Treatments and measurements were applied to leaf number 3, to determine their effect as curative, and one measurement was performed at 8 days after application A (DAA).

Botrytis cinerea = Botrytis cinerea rot on wounded apple and banana fruit; format: in vivo; design: key: Different results are indicated by different letters; Different results are indicated by different letters; Different results are indicated by different letters; Different results are indicated by different letters; Different results are indicated by different letters
Description: Tested fruit: apple (cv Elstar) and a banana (cv Cavendish) from organic origin/SKAL certified. SKAL is a semi-governmental Dutch organization that controls organic production in the Netherlands.
Used pathogen: Botrytis cinerea spore-suspension containing ˜3×10^5 propagules (spores)/ml.
Application: Fruit peel was damaged with a cork borer, depth ˜0.5 cm into the fruit, 2 wounds per apple fruit; 2 wounds per banana fruit. 30 microliters of a freshly prepared spore suspension of B. cinerea (estimated 3×10^5 spores/ml) were applied by pipette onto each wound. Subsequently, the spore-suspension was allowed to air-dry for 3 hours. 50 microliters of fungicide suspensions 1-6 were applied by pipette to each wound.
All fruits were kept at room temperature (20° C.).
Replicates: All treatments (1-6) were performed on 6 individual apples and 6 individual bananas with 2 wounds each resulting in 12 wounds per fruit per treatment. The recorded observed antifungal activity is the reduction (in percentages) of the average surface of the rot as observed in the 12 wounds compared to the rot surface of the untreated control.
Observation: All wounds were inspected daily for visual symptoms of fruit rot and/or fungus growth. Rot surface was determined after 5 and 7 days (see Tables 1, 2 and 3). The recorded observed antifungal activity is the surface of the rot.

Plasmopara viticola [4] = assay: Downy mildew on grapevine plants in greenhouse, phosphites and REVUS; format: in vivo; settings: conclusion from Table 5
Protocol: The trial was conducted with young plants of grapevine cultivar MERLOT in a greenhouse. […] Treatments were applied twice, once when 3 to 4 leaves were unfolded and the second application 10 days later. […] Inoculation of the plants with the pathogen Plasmopara viticola was performed 4 days after the second application. The suspension of the spores in water was prepared at the concentration of 20,000 to 40,000 spores/ml. All foliage ware inoculated. The different phosphites were applied at the same molar concentration of phosphite. With the high phosphite treatments, a concentration of 1.50 1 of a 2 M solution/100 1 was used and with the low phosphite treatment a concentration of 0.75 1 of a 2 M solution/100 1. […] An assessment on incidence and severity was performed 21 and 28 days after the second application. Efficacy was calculated for severity in comparison to untreated control infected.

Plasmopara viticola [5] = assay: Downy mildew on grapevine plants in greenhouse, phosphites and DITHANE Neotec; format: in vivo; settings: for Incidence: 21 days after the second treatment application, phosphite 1.50 l of 2 M solution/100 l, DITHANE Neotec 0.05 kg/100 liter water
Protocol: The trial was conducted with young plants of grapevine cultivar MERLOT in a greenhouse. Treatments were applied twice, once when 3 to 4 leaves were unfolded and the second application 10 days later. Each treatment had 4 plots as replications. The experimental set up was completely randomized and each plot had 3 plants. Inoculation of the plants with the pathogen Plasmopara viticola was performed 4 days after the second application. The suspension of the spores in water was prepared at the concentration of 20,000 to 40,000 spores/ml. All foliage ware inoculated. The different phosphites were applied at the same molar concentration of phosphite. With the high phosphite treatments, a concentration of 1.50 1 of a 2 M solution/100 1 was used and with the low phosphite treatment a concentration of 0.75 1 of a 2 M solution/100 1. […] An assessment on incidence and severity was performed 21 and 28 days after the second application. Efficacy was calculated for severity in comparison to untreated control infected. Similar to Example 5, with the following amendments: […] One measurement was performed at 21 days after the second application.

grapevine plants = assay: Phytotoxicity on grapevine plants; design: species or system grapevine cultivar MERLOT; settings: in vivo
Protocol: Treatments were applied twice, once when 3 to 4 leaves were unfolded and the second application 10 days later. […] The experimental set up was completely randomized and each plot had 3 plants. Inoculation of the plants with the pathogen Plasmopara viticola was performed 4 days after the second application. The suspension of the spores in water was prepared at the concentration of 20,000 to 40,000 spores/ml. All foliage ware inoculated. The different phosphites were applied at the same molar concentration of phosphite. With the high phosphite treatments, a concentration of 1.50 1 of a 2 M solution/100 1 was used and with the low phosphite treatment a concentration of 0.75 1 of a 2 M solution/100 1. REVUS® was used with a standard concentration of 0.015 liter/100 liter. An assessment on incidence and severity was performed 21 and 28 days after the second application. Efficacy was calculated for severity in comparison to untreated control infected.

[6] = Table 1, phosphonate Concentration 1, mandipropamid control
[7] = Table 1, phosphonate Concentration 2, mandipropamid control
[8] = Table 1, phosphonate Concentration 3, mandipropamid control
[9] = Table 2, phosphonate Concentration 2, mefenoxam control

| Compound | Area infected (%) (black sigatoka [1]; 23 DAA) | Efficacy (black sigatoka [1]; 23 DAA) | Area infected (%) (black sigatoka [1]; 30 DAA) | Efficacy (black sigatoka [1]; 30 DAA) | Area infected (%) (black sigatoka [1]; 36 DAA) | Efficacy (black sigatoka [1]; 36 DAA) | Area infected (%) (black sigatoka [2]) | Efficacy (black sigatoka [2]) | Area infected (%) (black sigatoka [3]) | Efficacy (black sigatoka [3]) | Effect on fungicidal attack of Botrytis on apple and banana (Botrytis cinerea; [6]) | Effect on fungicidal attack of Botrytis on apple and banana (Botrytis cinerea; [7]) | Effect on fungicidal attack of Botrytis on apple and banana (Botrytis cinerea; [8]) | Effect on fungicidal attack of Botrytis on apple and banana (Botrytis cinerea; [9]) | Incidence (Plasmopara viticola [5]) | further results |
| --- | --- | --- | --- | --- | --- | --- | --- | --- | --- | --- | --- | --- | --- | --- | --- | --- |
| N.N.O=[PH](O)O [(NH4)2HPO3] | 9.8 | 48.4 | 26.2 | 39.1 | 34.0 | 34.4 | 8.0 | 57.9 | 9.2 | 58.6 | d | c | b | c |  |  |
| disodium hydrogen phosphite [Na2HPO3] | 18.8 | 1.1 | 31.0 | 27.9 | 38.0 | 26.9 | 12.6 | 33.7 | 15.4 | 30.6 | d | c | b | c | 10.0 | Increase of the fungal efficacy of VOLLEY 88 OL compared with other phosphite salts (black sigatoka [1]; conclusion from Table 8): increases the fungal efficacy of VOLLEY® 88 OL the best; Increase of the fungal efficacy of REVUS compared with other phosphite salts (Plasmopara viticola [4]): increases the fungal efficacy of REVUS® the best; Increase of the fungal efficacy of DITHANE 60 SC compared with other phosphite salts (black sigatoka [2]; conclusion from Table 9, preventive): increases the fungal efficacy of DITHANE® 60 SC the best; Increase of the fungal efficacy of DITHANE 60 SC compared with other phosphite salts (black sigatoka [3]; conclusion from Table 10, curative): increases the fungal efficacy of DITHANE® 60 SC the best; Increase of the fungal efficacy of DITHANE Neotec compared with other phosphite salts (Plasmopara viticola [5]; conclusion from Table 6): increases the fungal efficacy of DITHANE® Neotec the best; Phytotox (%) (grapevine plants): 0%; Effect on fungicidal attack of Botrytis on apple and banana (Botrytis cinerea; Table 3, Na2HPO3 part, Concentration 1, mandipropamid control): d; Effect on fungicidal attack of Botrytis on apple and banana (Botrytis cinerea; Table 3, Na2HPO3 part, Concentration 2, mandipropamid control): c; Effect on fungicidal attack of Botrytis on apple and banana (Botrytis cinerea; Table 3, Na2HPO3 part, Concentration 3, mandipropamid control): b |
| O=[PH]([O-])[O-].[K+].[K+] [Treatment K2HPO3] | 9.2 | 51.6 | 26.4 | 38.6 | 33.0 | 26.5 | 10.6 | 44.2 | 12.6 | 43.2 | d | c | b | c | 5.0 |  |
